Reference: PMC11460631, “Inhibition of transient receptor potential vanilloid 3 channels by antimalarial hydroxychloroquine alleviates TRPV3-dependent dermatitis” (The Journal of Biological Chemistry, 2024)
Substitutions are numbered along the chain they refer to.

Assays:
[1] = target: T1, TRPV3 F633 alanine mutation (Homo sapiens, UniProt Q8NET8, F633A); test: Whole-cell recording of TRPV3 F633 alanine mutant; format: cell-based; conditions: 1 mM 2-APB, ± 80 mV
T1 construct: YFP or GFP; expressed in transfected cells; host or cells: HEK293T
T1 sequence (Q8NET8 1-790 F633A): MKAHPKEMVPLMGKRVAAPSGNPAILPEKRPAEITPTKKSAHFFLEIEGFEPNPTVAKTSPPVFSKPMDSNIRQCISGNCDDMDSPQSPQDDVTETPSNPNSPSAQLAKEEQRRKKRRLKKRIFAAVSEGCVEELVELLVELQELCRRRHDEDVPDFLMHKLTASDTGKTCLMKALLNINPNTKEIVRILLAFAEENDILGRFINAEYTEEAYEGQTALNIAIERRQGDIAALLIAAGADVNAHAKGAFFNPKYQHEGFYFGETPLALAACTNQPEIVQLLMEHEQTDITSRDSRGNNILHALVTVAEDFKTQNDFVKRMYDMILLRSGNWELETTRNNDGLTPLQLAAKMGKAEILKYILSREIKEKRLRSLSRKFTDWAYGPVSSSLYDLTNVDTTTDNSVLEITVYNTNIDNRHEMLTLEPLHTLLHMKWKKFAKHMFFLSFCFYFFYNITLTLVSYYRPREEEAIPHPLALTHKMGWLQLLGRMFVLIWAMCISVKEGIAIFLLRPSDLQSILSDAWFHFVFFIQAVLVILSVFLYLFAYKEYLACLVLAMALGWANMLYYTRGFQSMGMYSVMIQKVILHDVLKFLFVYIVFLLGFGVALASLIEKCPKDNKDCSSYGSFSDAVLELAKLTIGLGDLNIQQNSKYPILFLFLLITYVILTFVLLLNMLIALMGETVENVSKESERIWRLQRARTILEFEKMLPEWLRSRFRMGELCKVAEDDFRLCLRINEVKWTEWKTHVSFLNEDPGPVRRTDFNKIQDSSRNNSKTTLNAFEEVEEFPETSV
From the text: (§1) As we mentioned above, HCQ may act as a pore blocker of TRPV3. To probe the binding configuration of HCQ to TRPV3, we carried out molecular docking using Rosetta suite (https://rosettacommons.org) ([21]) and validated the docking models with point mutations in TRPV3 (Fig. 4A). […] Furthermore, when we introduced L670A to L591A mutant, we also observed a left shift on the concentration–response curve on this double mutant as compared to L591A mutant (Fig. 4H).
(§2) Figure 4 Residues of the pore domain are critical for HCQ inhibition on TRPV3.A, left panel, docking model of HCQ to the pore domain of TRPV3 structure (6uw4). Right panels, top view and side view of the HCQ-binding pocket. B-J, representative whole-cell recording of TRPV3 and mutants in response to 1 mM 2-APB, the mixture of 1 mM 2-APB and concentration gradients of HCQ with the holding potential of ± 80 mV. K, concentration–response curves of HCQ in WT TRPV3 and mutants (n = 3–5 cells). L, quantification of the inhibitory ratio of HCQ (100 μM) on WT, L591A, and N671Q. […]
All data from whole-cell recordings were analyzed in Igor Pro (WaveMetrics). IC50 values were determined by fitting the Hill equation to concentration-response relationships. […]

[2] = target: T2, TRPV3 L670A + L591A double mutant (Homo sapiens, UniProt Q8NET8, L591A/L670A); test: Whole-cell recording of TRPV3 L591A/L670A double mutant; format: cell-based; conditions: L670A introduced to L591A mutant
T2 construct: YFP or GFP; expressed in transfected cells; host or cells: HEK293T
T2 sequence (Q8NET8 1-790 L591A/L670A): T1 sequence (Q8NET8 1-790 F633A) with L591A, A633F, L670A
From the text: as §1
as §2, with “N671Q. Data are presented as mean ± SEM (n = 3–6 cells); F (2, 10) = 8.115, p = 0.0081 by one-way ANOVA using Dunnett’s multiple comparisons test. ∗∗, p = 0.0070 WT versus L591A; ∗, p = 0.0100 WT versus N671Q. 2-APB, 2-aminoethoxydiphenylborate; HCQ, hydroxychloroquine; TRP, transient receptor potential; TRPV3, transient receptor potential vanilloid 3 channel.” for “N671Q.”

In the case of `CCN(CCO)CCCC(C)Nc1ccnc2cc(Cl)ccc12` (centres unmarked) [HCQ, hydroxychloroquine], the IC50 [1] is reported as 0.14 ± 0.01 µM and the “shift of concentration–response curve on double mutant as compared to L591A mutant” value [2] is reported as “left shift”.
